From US12319694B2, “Heterocyclic nitrogen-containing purine derivatives, pharmaceutical preparations containing these derivatives and their use in neuroprotection” (UNIVERZITA PALACKEHO, priority 2019, dated 2025)
“And” between values parts separate entries of the source, which are not always exact repeats. Identical values can stand only once.

How the values were obtained:
[1] = Calcein AM viability test on ATRA-differentiated SH-SY5Y cells; type: cell-based, human; conditions: human, ATRA-differentiated SH-SY5Y neuroblastoma cells, DMSO control = 100%, read-out: % of viability, relative to control; for viability at 24 h, 0.1 µM: 0.1 μM compound; for viability at 24 h, 1 µM: 1 μM compound; for viability at 24 h, 10 µM: 10 μM compound
Experimental: (§1) The SH-SY5Y human neuroblastoma cell line obtained as kind gift from Walter d'Acunto (originally purchased from ATCC—American Type Culture Collection (Manassas, VA, USA) was cultivated in Dulbecco's modified Eagle's Medium and Ham's F12 Nutrient Mixture (DMEM:F-12, 1:1), supplemented with 10% fetal bovine serum (FBS) and 1% penicillin and streptomycin at 37° C. in a humidified atmosphere 5% CO2, 95% air in passage limit up to ATCC+15. The assay was performed in 96-well microplate with 7000 SH-SY5Y cells per well. Next day, SH-SY5Y underwent all-trans retinoic acid (ATRA)-differentiation for 48 h (ATRA 10 μM). After 48 h, old DMEM/F12 media was removed by fresh media containing tested compounds at 0.1, 1 and 10 μM concentrations for 24 h. The tested compounds were dissolved in DMSO were added into the medium. The maximum concentration of DMSO in media was kept below 0.1% (v/v). The cell viability was measured by Calcein AM (1 mg/ml ThermoFisher) viability assay. Solution of Calcein AM in PBS (0.5 uM) was pipetted to cells and incubated for 50 minutes. After that the fluorescence was measured at 488/517 nm (excitation/emission) using microplate reader Infinite M200 (TECAN). Calcein AM assay is based on the dye-intracellular-esterase cleavage of non-fluorescent dye (Calcein AM) by living cells to fluorescent dye (Calcein), while dyeing cells that lose such ability. The values in Table 4 show % of viability, relative to control of all tested compounds. The control (medium with DMSO, <0.1% (v/v)) was postulated as 100% viability (see the first line of the table).

[2] = test system: SH-SY5Y human neuroblastoma cell line; test: Oxidative stress measurement (dihydroethidium, superoxide) in SH-SY5Y, salsolinol-induced model of PD; type: cell-based; conditions: 6 h; for activity at 1 µM: 1 μM compound with SAL 500 μM; for activity at 1 µM / activity at 10 µM: read-out: Oxidative stress (% of control); for reduction of oxidative stress induced by Salsolinol (in words): SAL 500 μM, compounds 1 and 10 μM
Experimental: The assay was performed in 96-well microplate with 7000 cells/well. Next day, SH-SY5Y underwent differentiation protocol for 48 h see above. Treatment procedure remained the same as in previous section (Cell treatment and viability/cytotoxicity assays). Additionally, oxidative stress (OS) inducers such as 6-hydroxydopamine (6-OHDA) and glutamate (Glu) alone were used as […]. Negative controls determined threshold of excessive OS. […] After 30 minutes, DHE was read at 500 nm/580 nm (excitation/emission). DHE is cell permeable dye which is selective toward superoxide radical detection.

Nrf2 = test: Activation of Nrf2-dependent expression, EpRE-LUX reporter cell line; type: cell-based; conditions: 24 h; tested at 100, 10, 1 and 0.1 μM, concentration of the printed value not stated; mean ± SD (n = 3)
Experimental: The ability of compounds to activate Nrf2-dependent expression was determined by EpRE-LUX reporter cell line. In brief, compounds at 100, 10, 1 and 0.1 μM concentrations of the tested compounds were incubated for 24 h with the cells. After cells lysis (10 mM Tris, 2 mM DTT), a buffer containing 0.2 mM luciferin was added to start luminescent reaction. The increase in luminescence was measured with microplate reader Infinite M200 (TECAN). Compounds with Nrf2 value higher than 0 are strong Nrf2 activators and thus will be useful agents for the treatment of neurodegenerative diseases associated with oxidative stress.

[3] = Radical scavenging activity by ORAC assay; conditions: NAUC relative to trolox; mean ± SD (n = 3)
Experimental: The ability of compounds to scavenge free radicals in vitro was determined by Oxygen Radical Absorbance Capacity (ORAC) method. In brief, fluorescein (100 μL, […]) and 25 μL of tested compound solution were added into each working well in a 96-well microplate preincubated at 37° C. Thereafter, 25 μL of 250 mM 2,2′-azobis(2-amidino-propan)dihydrochloride (AAPH) was quickly added, microplate was shaken for 5 s and the fluorescence (Ex. 485 nm, Em. 510 nm) was read every 3 min over 90 min by using microplate reader Infinite 200 (TECAN, Switzerland). The NAUC value (Net Area Under Curve) was used to express antioxidant activity relative to trolox (hydrophilic equivalent of vitamin E postulated as a standard). Substances with an ORAC value greater than 0 actively trap free radicals.

[4] = test system: SH-SY5Y human neuroblastoma cell line (differentiated phenotype); test: Viability test, salsolinol-induced model of Parkinson's disease in differentiated SH-SY5Y (Calcein AM); type: cell-based; conditions: 24 h
Experimental: as §1
Similarly, to the previous test the assay was performed in 96-well microplates with 7000 SH-SY5Y cells per well. Day after the seeding of cells, SH-SY5Y underwent all-trans retinoic acid (ATRA)-differentiation for 48 h (ATRA 10 μM). After 48 h, old DMEM/F12 media was removed by fresh media containing 500 μM dopaminergic neurotoxin Salsolinol (SAL) without or with tested compounds at 0.1, 1 and 10 μM concentrations. […] After 24 h the cell viability was measured by Calcein AM viability assay.

[5] = Homo sapiens, SH-SY5Y, 10 μM compound with SAL 500 μM
[6] = 0.1 μM compound with 500 μM Salsolinol
[7] = 1 μM compound with 500 μM Salsolinol
[8] = 10 μM compound with 500 μM Salsolinol

| SMILES | viability at 24 h, 0.1 µM [1] [%] | viability at 24 h, 1 µM [1] [%] | viability at 24 h, 10 µM [1] [%] | activity at 1 µM ([2]; Homo sapiens, SH-SY5Y) [%] | activity at 10 µM [2, 5] [%] | Nrf2 (relative luminiscence) (Nrf2) | ORAC (compound/trolox) [3] [compound/trolox] | Neuroprotective effect (% of control) [4, 6] | Neuroprotective effect (% of control) [4, 7] | Neuroprotective effect (% of control) [4, 8] | Oxidative stress (% of control) ([2]; Glu 160 mM alone (negative control)) | Oxidative stress (% of control) ([2]; Salsolinol 500 μM alone, DMSO control = 100%) | decrease in percentages of alive cells ([4]; 500 μM Salsolinol alone) [%] | reduction of oxidative stress induced by Salsolinol (in words) [2] | Oxidative stress (% of control) ([2]; 10 μM compound with SAL 500 μM) | activity at 30 µM ([2]; Homo sapiens, SH-SY5Y, 6-OHDA 30 μM alone (negative control)) [%] |
| --- | --- | --- | --- | --- | --- | --- | --- | --- | --- | --- | --- | --- | --- | --- | --- | --- |
| Oc1cccc(Cn2cnc3c(N4CCCC4)nc(N4CCCC4)nc32)c1 [Compound 26, 9-(3-Hydroxybenzyl)-2,6-di(pyrrolidin-1-yl)-9H-purine] | 108 | 120 | 142 | 107 | 142 | 0.33 ± 0.06 | 0.126 ± 0.018 | 4.90 % of control | 14.43 % of control | 20.71 % of control | – | – | – | – | – | – |
| N[C@@H](CCC(=O)O)C(=O)O [Glu, glutamate, reference compound] | – | – | – | – | – | – | – | – | – | – | 268.62 % of control | – | – | – | – | – |
| C[C@@H]1NCCc2cc(O)c(O)cc21 [Salsolinol, reference compound] | – | – | – | – | – | – | – | – | – | – | – | 335.4 % of control and 335.36 % of control | 30.7 | – | – | – |
| c1ccc(Cn2cnc3c(N4CCSCC4)nc(N4CCSCC4)nc32)cc1 [Compound 5, 9-benzyl-2,6-dithiomorpholino-9H-purine] | 106 | 126 | 129 | 121 | 135 | 0.17 ± 0.06 | 0.016 ± 0.001 | 7.03 % of control | – | 19.89 % of control | – | – | – | highest potency toward the reduction of oxidative stress | – | – |
| COc1cc2c(cc1OC)C(=O)C(CC1CCN(Cc3ccccc3)CC1)C2 (stereo not drawn) [Donepezil, reference compound] | – | – | – | – | – | – | – | 2.76 % of control | 6.73 % of control | 14.25 % of control | – | – | – | – | – | – |
| CC(=O)N(O)CCCCCNC(=O)CCC(=O)N(O)CCCCCNC(=O)CCC(=O)N(O)CCCCCN [Deferoxamine, reference compound] | – | – | – | – | 101 | – | – | 1.43 % of control | 4.86 % of control | 10.52 % of control | – | – | – | – | – | – |
| c1ccc(Cn2cnc3c(N4CCCCC4)nc(N4CCCC4)nc32)cc1 [Compound 78, 9-Benzyl-6-(piperidin-1-yl)-2-(pyrrolidin-1-yl)-9H-purine] | 106 | 120 | 134 | 136 | 238 | 0.23 ± 0.03 | 0.071 ± 0.005 | N/A (N/A = no protection) | 17.95 % of control | N/A (N/A = no protection) | – | – | – | – | OS level reaching threshold of negative controls | – |
| c1ccc(Cn2cnc3c(N4CCOCC4)nc(N4CCOCC4)nc32)cc1 [Compound 4, 2,6-dimorpholino-9-benzylpurine] | 106 | 113 | 146 | 106 | 155 | 0.19 ± 0.02 | 0.007 ± 0.002 | 1.70 % of control | 8.11 % of control | 21.12 % of control | – | – | – | – | – | – |
| Nc1nc(NCCc2ccc(O)cc2)nc2nc(-c3ccco3)nn12 [ZM241385, reference compound] | – | – | – | – | 102 | – | – | 1.95 % of control | 7.03 % of control | 9.31 % of control | – | – | – | – | – | – |
| Clc1cccc(Cl)c1Cn1cnc2c(N3CCCC3)nc(N3CCCC3)nc21 [Compound 74, 9-(2,6-Dichlorobenzyl)-2,6-di(pyrrolidine-1-yl)-9H-purine] | 111 | 138 | 152 | 126 | 179 | 0.38 ± 0.08 | – | 8.57 % of control | 20.24 % of control | 22.35 % of control | – | – | – | – | – | – |
| NCCc1cc(O)c(O)cc1O [Compound 6-OHDA, 6-hydroxydopamine, reference compound] | – | – | – | – | – | – | – | – | – | – | – | – | – | – | – | 215 |
| Oc1ccc(Cn2cnc3c(N4CCCC4)nc(N4CCCC4)nc32)cc1 [Compound 30, 9-(4-hydroxybenzyl)-2,6-di(pyrrolidin-1-yl)-9H-purine] | 99.5 | 111 | 123 | 95.9 | 97.4 | 0.29 ± 0.11 | 0.422 ± 0.034 | 10.62 % of control | – | 26.41 % of control | – | – | – | highest potency toward the reduction of oxidative stress | – | – |
